This passage reports IC50 results from US7504537B2, “Hydroxamic acid derivative and MMP inhibitor containing the same as active ingredient” (Dainippon Sumitomo Pharma Co., Ltd., priority 2001, dated 2009).

Molecules are shown by their SMILES.

Assay type in all cases: biochemical
Assay [1] has as its target T1, MMP-13 (Homo sapiens, UniProt P45452).
T1 construct: a fragment of 767 bp encoding original 84 amino acids of complete MMP-13 and encoding 164 amino acids; made in house; host or cells: E. coli BL21 (DE3), pET11a
As to the kind of experiment: Test 2 Test on MMP-13 inhibition activity (fluorogenic peptide substrate). The conditions noted are these: activated MMP-13, 37° C. From the text: Test 2 Test on MMP-13 Inhibition Activity
In order to subcloning C-terminal truncated cDNA in which the cDNA encodes procollagenase-3 (proMMP-13) (J. Biol. Chem., 269(24), 16766-16773 (1994)), two synthesized oligonucleotide primer fragments: • (5′-[…]-3′ and 5′-[…]-3′: In former the sequence for specific NdeI site (under line) including first methionine is included, and in latter terminal codon and BamHI site (under lined) are included.) were used with human cartilage cell cDNA library for PCR. Due to these primers and Pfu DNA polymelase (STRATAGENE) for PCR, there was obtained a fragment of 767 bp encoding original 84 amino acids of complete MMP-13 and encoding 164 amino acids. The said fragment was cut out with digestion by NdeI and BamHI, and the fragment was annealed to NdeI site and BamHI site of pET11a (STRATAGENE). The recombinant plasmid was transformed into E. coli BL21 (DE3) and the bacteria were cultivated. The crude cell extract was prepared according to the method of Biochemistry. The said extract was dialyzed with 20 mM Tris-HCl (pH 7.2)/5 mM CaCl2/0.02% NaN3 solution, treated with SP-sepharose HP column (1.6×10 cm, Amasham-Pharmacia biotec), and the eluting was carried out by liner gradient from 0 to 0.3 m of sodium chloride solution (50 ml) (partially purified proMMP-13 was eluted at about 0.2M.) The eluted fraction was dialyzed with 20 mM Tris-HCl (pH 7.9)/5 mM CaCl2/200 mM (NH4)2SO4/0.02% NaN3 solution, treated with phenylsepharose HP column (1.6×5 cm, Amersham-Pharmacia biotec), and the eluting was carried out by liner gradient from 0.2M to 0M sulfuric acid ammonium solution (purified proMMP-13 was eluted at about 50 mM.). The eluted fraction was concentrated by YM-5 ultrafilter membrane, and activated by 4-aminophenyl mercuric acetate. Activated MMP-13 was treated with gel filtration chromatography in accordance with the method of Biochemistry to be separated from propeptide. Inhibiting Test Method
Enzyme activity test was carried out by the method of G. Knight (FEBS Lett., 296(3), 263-266 (1992)).
A mixture of activated MMP-13 (20 nM, 10 μl), buffer solution (70 μl, pH 7.5 solution containing 100 mM Tris-HCl solution, 10 mM calcium chloride solution, 100 mM sodium chloride solution and 0.05% Briji-35 solution), MOCAc-Pro-Leu-Gly-Leu-A2pr(DNP)-Ala-Arg-NH2 in 0.1% DMSO solution (100 μM, 10 μl) and a test compound in DMSO solution was incubated for 1.5 hours at 37° C. The mixture was put on a 96 well-plate (100 μl/wel), and the plate was incubated at 37° C. The enzyme activity in the presence of the compound was measured based on fluorescence intensity (λex 320 nm, λem 405 nm), and IC50 was calculated.

Assay [2] concerns the target T2, MMP-3 (Homo sapiens, UniProt P08254).
T2 construct: C-terminal truncated cDNA in which the cDNA encodes human prostromelysin; made in house; host or cells: E. coli
In words: Test 1 Test on MMP-3 inhibiting activity (fluorogenic peptide substrate). The settings on record: activated MMP-3, 37° C.; read-out: MMP-3 inhibition activity value. On the procedure:
Test 1 Test on MMP-3 Inhibiting Activity
C-terminal truncated cDNA in which the cDNA encodes human prostromelysin, was subcloned (proMMP-3, cDNA sequence in Nature, 348, 699-704 (1990)), was expressed in E. coli and then, the expressed protein was purified in accordance with the method described in Biochemistry 30, 6476-6483 (1991). proMMP-3 activation was carried out by treating with 1 mM 4-aminophenyl mercuric acetate for 60 minutes at 37° C.
Enzyme activity test was conducted by the method of C. G. Knight (FEBS Lett., 296(3), 263-266 (1992)).
A mixture of activated MMP-3 (20 nM, 10 μl), buffer solution (70 μl, pH 7.5 solution containing 100 mM Tris-HCl solution, 10 mM calcium chloride solution, 100 mM sodium chloride solution and 0.05% Brij-35 solution), MOCAc-Pro-Leu-Gly-Leu-A2pr(DNP)-Ala-Arg-NH2 in 0.1% DMSO solution (100 μM, 10 μl) and a test compound in DMSO solution was incubated for 1.5 hours at 37° C. The mixture was put on a 96 well-plate (100 μl/well) and the plate was cultured at 37° C. The enzyme activity in the presence of the compound was measured based on fluorescence intensity (λex 320 nm, λem 405 nm), and IC50 was calculated.

In assay [3] the target is T3, MMP-14 (MT1-MMP) (Homo sapiens, UniProt P50281).
T3 construct: purchased Biogenesis, supplied by Cosmobio (Nakarai Tesku)
In words: Test 5 MMP-14 (MT1-MMP) inhibiting activity test. The settings on record: human recombinant MT1-MMP, 37° C.; read-out: MMP-14 inhibition activity value. On the procedure:
Test 5 MMP-14 (MTI-MMP) Inhibiting Activity Test
Human recombinant MTI-MMP used the product prepared by Biogenesis and supplied by Cosmobio (Nakarai Tesku).
An assay buffer solution (70 μl, pH 7.5 solution containing 0.1M Tris-HCl solution, 0.1M calcium chloride solution, 10 mM sodium chloride solution and 0.05% Brij-35 solution), 0.1 w/w % a compound in DMSO (10 μl), MMP substrate solution (MOCAc-Pro-Leu-Gly-Leu-A2pr(DNP)-Ala-Arg-NH2 (Peptide Lab.) diluted with the assay buffer solution (50 μM, 10 μl)) and human recombinant MT1-MMP (0.4 pg/10 μl/well) were well agitated under stirring. The enzyme activity of the mixture was measured based on fluorescence intensity (λex 320 nm/λem 405 nm) by a fluorescence reader. After the mixture was incubated at 37° C. for 0.5 hour, the fluorescence intensity (λex 320 nm/λem 405 nm) was measured every hour, and IC50 was calculated.
The inhibition value was calculated by withdrawing average value of blank well from fluorescence mean value of well in which MT1-MMP was added. As the blank was used the mixed solution prepared by adding assay buffer (10 μl) instead of MT1-MMP solution.

Assay [4] addresses MMP-9 (Homo sapiens, UniProt P14780). As to the kind of experiment: Test 4 MMP-9 inhibiting activity test (biotin labeled gelatin). The conditions noted are these: activated human MMP-9, biotin labeled gelatin; read-out: MMP-9 inhibition activity value. On the procedure: Test 4 MMP-9 Inhibiting Activity Test
A mixture of buffer solution (190 μl; pH 7.5 solution containing 50 mM Tris-HCl solution, 0.5 m sodium chloride solution and 5 mM calcium chloride solution), human MMP-9 (10 μl) and trypsin solution (20 μl; trypsin 3 mg in activated buffer (5 ml)) was incubated at 37° C. for 10 minutes. Thereto was added aprotinine solution (20 μl; aprotinine (3 mg) in buffer (5 ml)) and the mixture was incubated at 37° C. for 10 minutes, followed by addition of buffer (2 ml). The mixture was preserved under cooling with ice until use.
A mixture of DMSO solution (2 μl) containing definite concentration of the compound, biotin labeled gelatin (188 μl) and activated MMP-9 solution (10 μl) was put on a 96 well-assay plate (protein nonabsorbance type), well agitated, and incubated at 37° C. for 1 hour. This solution was transferred to Streptavidin-coating plate, and agitated at 15° C. to 30° C. for 30 minutes. And then the solution was washed with TTC buffer solution (200 μl) three times. Thereto was added Streptavidin-POD (200 μl) and the mixture was agitated at 15° C. to 25° C. for 60 minutes, followed by washing with TTC buffer (200 μl) three times. Then, ABTS solution (200 μl) was added thereto and after standing at room temperature for 40 minutes, furuorescence intensity was measured at 405 nm and IC50 was calculated.
In case of the above test, DMSO (2 μl) was used as a control instead of a sample solution. In the case of a blank, DMSO (2 μl) instead of the sample solution and the solution (10 μl) prepared in the same manner as preparation of […] but without adding 1.2 Uhuman MMP-9, instead of activated MMP-9 solution (10 μl), were used.

Chain of MMP-9 (P14780 107-707 limits assumed): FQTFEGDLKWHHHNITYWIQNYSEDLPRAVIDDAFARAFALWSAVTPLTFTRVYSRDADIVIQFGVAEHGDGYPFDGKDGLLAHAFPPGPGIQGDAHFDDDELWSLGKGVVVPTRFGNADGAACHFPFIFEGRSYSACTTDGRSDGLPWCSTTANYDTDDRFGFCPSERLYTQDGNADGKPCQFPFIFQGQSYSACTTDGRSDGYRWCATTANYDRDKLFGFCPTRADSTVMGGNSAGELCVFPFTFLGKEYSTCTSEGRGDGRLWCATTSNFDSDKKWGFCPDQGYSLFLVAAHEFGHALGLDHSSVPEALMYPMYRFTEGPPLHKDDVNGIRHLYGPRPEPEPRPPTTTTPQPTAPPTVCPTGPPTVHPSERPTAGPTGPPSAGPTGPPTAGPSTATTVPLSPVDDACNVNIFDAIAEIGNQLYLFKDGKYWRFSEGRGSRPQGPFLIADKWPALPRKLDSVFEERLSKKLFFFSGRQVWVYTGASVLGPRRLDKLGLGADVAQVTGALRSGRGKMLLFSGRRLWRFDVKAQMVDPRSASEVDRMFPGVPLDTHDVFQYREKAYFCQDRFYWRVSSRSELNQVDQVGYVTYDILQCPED
T2 sequence (P08254 100-272 limits assumed): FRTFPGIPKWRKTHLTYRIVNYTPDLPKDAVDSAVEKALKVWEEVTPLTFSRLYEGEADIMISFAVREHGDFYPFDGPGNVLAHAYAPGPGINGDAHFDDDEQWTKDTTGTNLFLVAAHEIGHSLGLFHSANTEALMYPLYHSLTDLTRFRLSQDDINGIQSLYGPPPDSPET

Take `CC(C)CN(CC(=O)NO)S(=O)(=O)c1ccc(Oc2ccc(S(C)(=O)=O)cc2)cc1` [Example 5, N′^1′-Hydroxy-N′^2′-isobutyl-N′^2′-({4-[4-(methylsulfonyl)phenoxy]phenyl}sulfonyl)glycinamide]: the IC50 in assay [1] is 1.3 nM; in assay [2], 15.4 nM; in assay [3] it was 105 nM; in assay [4], more than 100 nM.
